This passage reports EC50 results from ChEMBL document CHEMBL1131966, “On topography and functionality in the B-D rings of cephalostatin cytotoxins” (Bioorg Med Chem Lett, 1999).

Holding throughout (type): functional
For one experiment, the system named is A498. The experiment in a line: In vitro cytotoxicity against Renal A-498 human tumors following a 6 day exposure. To be noted: A498, 144 h, read-out: ED50 (the source's name).
For experiment [1], the species on record is Homo sapiens. The experiment in a line: In vitro cytotoxicity against various human tumors (6-8 lines) as determined in the Purdue cell culture laboratory, following a 6 day exposure. The note with it: 144 h, read-out: ED50 (the source's name).
Experiment [2] is filed under the species Homo sapiens. The experiment in a line: In vitro cytotoxicity against Breast avg 1-3 types of human tumors following a 6 day exposure. The note with it: 144 h, read-out: ED50 (the source's name).
A further experiment relates to MIA PaCa-2. The experiment in a line: In vitro cytotoxicity against […] PACA-2 human tumors following a 6 day exposure. To be noted: MIA PaCa-2, 144 h, read-out: ED50 (the source's name).
The next experiment has as its system PC-3. The experiment in a line: In vitro cytotoxicity against prostate PC-3 human tumors following a 6 day exposure. To be noted: PC-3, 144 h, read-out: ED50 (the source's name).
In a further experiment the test system is A549. The experiment in a line: In vitro cytotoxicity against Lung A-549 human tumors following a 6 day exposure. The note with it: A549, 144 h, read-out: ED50 (the source's name).
In another experiment the test system is HT-29. The experiment in a line: In vitro cytotoxicity against Colon HT-29 human tumors following a 6 day exposure. The note with it: HT-29, 144 h, read-out: ED50 (the source's name).

With `COc1cccc2c1C(=O)c1c(O)c3c(c(O)c1C2=O)C[C@@](O)(C(=O)CO)C[C@@H]3O[C@H]1C[C@H](N)[C@H](O)[C@H](C)O1` [DOXORUBICIN], the EC50 in the experiment with A498 was 3.5 nM; in the experiment filed under Homo sapiens [1], 18.7 nM; in the experiment filed under Homo sapiens [2], 150 nM; with MIA PaCa-2, 6.3 nM; with PC-3 it was 57 nM; in the experiment on A549, 6.2 nM. Further, the EC50 in the experiment with HT-29 is 37 nM.
